Consider 9 molecules from patent US10457707B2, “Substituted urea depsipeptide analogs as activators of the CLPP endopeptidase” (priority 2015, dated 2019).

Assay type in all cases: cell-based
For assay [1], the system named is Staphylococcus aureus, USA 300. The experiment in a line: Minimal inhibitory concentration assay. The note with it: USA300, read-out: Minimal Inhibitory Concentrations S. aureus USA 300. In a few lines: (§1)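 Broth microdilution per CLSI M7-A7: two-fold serial dilutions of compound in broth (top final concentration 200 μM) were inoculated with ~10^5 cfu/mL bacteria and incubated aerobically overnight at 37 °C. MIC was read visually as the lowest concentration preventing growth.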

Assay [2] deals with Staphylococcus aureus, USA 300 wherein ClpP is inactivated. As to the kind of experiment: Minimal inhibitory concentration assay. In outline: as §1
Assay [3] concerns Streptococcus pneumoniae, R6. As to the kind of experiment: Minimal inhibitory concentration assay. The note with it: read-out: Minimal Inhibitory Concentrations S. pneumoniae R6. In outline: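 Microbroth dilution with two-fold serial compound dilutions in broth, incubated aerobically overnight at 37° C. MIC taken as the lowest concentration preventing bacterial growth.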
The subject of assay [4] is Enterococcus faecalis, ATCC 33186. The experiment in a line: Minimal inhibitory concentration assay (microbroth dilution). In outline:
as §1

Where [5] appears, read: Enterococcus faecalis, ATCC33186; read-out: Minimal Inhibitory Concentrations E. faecalis ATCC 33186.
Setting [6] is: Enterococcus faecalis, ATCC33186, read-out: Minimal Inhibitory Concentrations E. faecalis ATCC 33186.

≈ marks a conversion by molar mass, not a printed value. Like-named read-outs stand apart in the source and are kept apart here. *1 amine or outer side, *2 acyl side, *3 side chain or, on linkers, in order; H or OH if unused. Where a SMILES comes first, the peptide text is derived from it. Bridges are numbered along the chain shown (N, C = ends). [ ]: non-standard residue; d: D form. The star is where a group is joined. ξ: configuration not given here. Piperazine(2S-CO,4-Me) = CN1CCN[C@H](C(=O)O)C1; Phe(3,5-F2) = N[C@@H](Cc1cc(F)cc(F)c1)C(=O)O; NH(1-Me-indolin-5-yl) = CN1CCc2cc(N*)ccc21; Morpholine(3S-CO) = O=C(O)[C@@H]1COCCN1; Pro(4S-Me) = C[C@@H]1CN[C@H](C(=O)O)C1; NH(4-Cl-2-F-phenyl) = Fc1cc(Cl)ccc1N*; Pro(4R-Me) = C[C@H]1CN[C@H](C(=O)O)C1; NMeaThr = CN[C@H](C(=O)O)[C@H](C)O; Hyp = O=C(O)[C@@H]1C[C@@H](O)CN1; NH(4-Et-phenyl) = CCc1ccc(N*)cc1; NH(4-Me-phenyl) = Cc1ccc(N*)cc1; ξNMeThr = CNC(C(=O)O)[C@@H](C)O; aThr = C[C@H](O)[C@H](N)C(=O)O; NMeA = CN[C@@H](C)C(=O)O; CO = O=C([*:1])[*:2]

With `CCc1ccc(NC(=O)N[C@@H](Cc2cc(F)cc(F)c2)C(=O)N[C@@H]2C(=O)N3CCC[C@H]3C(=O)N(C)[C@@H]([C@H](C)O)C(=O)N[C@@H](C)C(=O)N3C[C@@H](C)C[C@H]3C(=O)O[C@H]2C)cc1` [Compound 204, (S)-3-(3,5-difluorophenyl)-2-(3-(4-ethylphenyl)ureido)-N-((2S,6S,9S,11aS,17S,18S,20aS)-9-((S)-1-hydroxyethyl)-2,6,10,18-tetramethyl-5,8,11,16,20-pentaoxohexadecahydro-1H,5H,16H-dipyrrolo[2,1-c:2′,1′-l][1]oxa[4,7,10,13]tetraazacyclohexadecin-17-yl)propanamide] ({NH(4-Et-phenyl)-CO}-[Phe(3,5-F2)][aThr]P[NMeaThr]A[Pro(4S-Me)]; ester 2-C), the MIC was found to be 0.098 µM (≈ 0.0809 µg/mL) in assay [1], 0.024 µM (≈ 0.0198 µg/mL) in assay [3] and 0.195 µM (≈ 0.161 µg/mL) in assay [4] (setting [5]). In addition, the “Minimal Inhibitory Concentrations S. aureus USA 300 ΔClpP” value in assay [2] was found to be 100 µM.

In the case of `Cc1ccc(NC(=O)N[C@@H](Cc2cc(F)cc(F)c2)C(=O)N[C@@H]2C(=O)N3C[C@H](O)C[C@H]3C(=O)N(C)[C@@H](C)C(=O)N[C@@H](C)C(=O)N3C[C@@H](C)C[C@H]3C(=O)O[C@H]2C)cc1` [Compound 214, (S)-3-(3,5-difluorophenyl)-N-((2S,6S,9S,11aS,13R,17S,18S,20aS)-13-hydroxy-2,6,9,10,18-pentamethyl-5,8,11,16,20-pentaoxohexadecahydro-1H,5H,16H-dipyrrolo[2,1-c:2′,1′-l][1]oxa[4,7,10,13]tetraazacyclohexadecin-17-yl)-2-(3-(p-tolyl)ureido)propanamide] ({NH(4-Me-phenyl)-CO}-[Phe(3,5-F2)][aThr][Hyp][NMeA]A[Pro(4S-Me)]; ester 2-C), the MIC in assay [1] worked out at 1.56 µM (≈ 1.24 µg/mL); in assay [3], 0.195 µM (≈ 0.156 µg/mL); in assay [4] (setting [6]), 0.195 µM (≈ 0.156 µg/mL). Also, the “Minimal Inhibitory Concentrations S. aureus USA 300 ΔClpP” value in assay [2] is over 200 µM.

Consider `C[C@@H]1C[C@H]2C(=O)O[C@@H](C)[C@H](NC(=O)[C@H](Cc3cc(F)cc(F)c3)NC(=O)Nc3ccc4c(c3)CCN4C)C(=O)N3CCC[C@H]3C(=O)N(C)C([C@@H](C)O)C(=O)N[C@@H](C)C(=O)N2C1` (stereo partly drawn) [Compound 311, (S)-3-(3,5-difluorophenyl)-N-((2R,6S,9R,11aS,17S,18S,20aS)-9-((R)-1-hydroxyethyl)-2,6,10,18-tetramethyl-5,8,11,16,20-pentaoxohexadecahydro-1H,5H,16H-dipyrrolo[2,1-c:2′,1′-l][1]oxa[4,7,10,13]tetraazacyclohexadecin-17-yl)-2-(3-(1-methylindolin-5-yl)ureido)propanamide] ({NH(1-Me-indolin-5-yl)-CO}-[Phe(3,5-F2)][aThr]P[ξNMeThr]A[Pro(4R-Me)]; ester 2-C), for which the MIC in assay [1] was determined as 0.156 µM (≈ 0.133 µg/mL); in assay [3], 0.078 µM (≈ 0.0665 µg/mL); in assay [4] (setting [6]), 0.039 µM (≈ 0.0333 µg/mL). For the same molecule, the “Minimal Inhibitory Concentrations S. aureus USA 300 ΔClpP” value in assay [2] is over 20 µM.

Turning to `C[C@@H]1C[C@H]2C(=O)O[C@@H](C)[C@H](NC(=O)[C@H](Cc3cc(F)cc(F)c3)NC(=O)Nc3ccc4c(c3)CCN4C)C(=O)N3CCC[C@H]3C(=O)N3CCOC[C@H]3C(=O)N[C@@H](C)C(=O)N2C1` [Compound 312, (S)-3-(3,5-difluorophenyl)-2-(3-(1-methylindolin-5-yl)ureido)-N-((6aS,12S,13S,15aS,17R,21S,23aS)-13,17,21-trimethyl-6,11,15,20,23-pentaoxooctadecahydro-6H,11H,15H-[1,4]oxazino[3,4-i]dipyrrolo[2,1-c:2′,1′-l][1]oxa[4,7,10,13]tetraazacyclo-hexadecin-12-yl)propanamide] ({NH(1-Me-indolin-5-yl)-CO}-[Phe(3,5-F2)][aThr]P[Morpholine(3S-CO)]A[Pro(4R-Me)]; ester 2-C), the MIC in assay [1] was 0.156 µM (≈ 0.133 µg/mL); in assay [3], 0.078 µM (≈ 0.0664 µg/mL); in assay [4] (setting [6]) it was 0.039 µM (≈ 0.0332 µg/mL). In addition, in assay [2], the “Minimal Inhibitory Concentrations S. aureus USA 300 ΔClpP” value is over 20 µM.

In the case of `C[C@@H]1C[C@H]2C(=O)O[C@@H](C)[C@H](NC(=O)[C@H](Cc3cc(F)cc(F)c3)NC(=O)Nc3ccc(Cl)cc3F)C(=O)N3CCC[C@H]3C(=O)N(C)C([C@@H](C)O)C(=O)N[C@@H](C)C(=O)N2C1` (stereo partly drawn) [Compound 313, (S)-2-(3-(4-chloro-2-fluorophenyl)ureido)-3-(3,5-difluorophenyl)-N-((2R,6S,9R,11aS,17S,18S,20aS)-9-((R)-1-hydroxyethyl)-2,6,10,18-tetramethyl-5,8,11,16,20-pentaoxohexadecahydro-1H,5H,16H-dipyrrolo[2,1-c:2′,1′-l][1]oxa[4,7,10,13]tetraazacyclohexadecin-17-yl)propanamide] ({NH(4-Cl-2-F-phenyl)-CO}-[Phe(3,5-F2)][aThr]P[ξNMeThr]A[Pro(4R-Me)]; ester 2-C), the MIC was under 0.02 µM in assay [1], under 0.02 µM in assay [3] and 0.039 µM (≈ 0.0332 µg/mL) in assay [4] (setting [5]). For the same molecule, in assay [2], the “Minimal Inhibitory Concentrations S. aureus USA 300 ΔClpP” value is over 20 µM.

On to `C[C@@H]1C[C@H]2C(=O)O[C@@H](C)[C@H](NC(=O)[C@H](Cc3cc(F)cc(F)c3)NC(=O)Nc3ccc(Cl)cc3F)C(=O)N3CCC[C@H]3C(=O)N3CCOC[C@H]3C(=O)N[C@@H](C)C(=O)N2C1` [Compound 314, (S)-2-(3-(4-chloro-2-fluorophenyl)ureido)-3-(3,5-difluorophenyl)-N-((6aS,12S,13S,15aS,17R,21S,23aS)-13,17,21-trimethyl-6,11,15,20,23-pentaoxooctadecahydro-6H,11H,15H-[1,4]oxazino[3,4-i]dipyrrolo[2,1-c:2′,1′-l][1]oxa[4,7,10,13]tetraazacyclo-hexadecin-12-yl)propanamide] ({NH(4-Cl-2-F-phenyl)-CO}-[Phe(3,5-F2)][aThr]P[Morpholine(3S-CO)]A[Pro(4R-Me)]; ester 2-C), for which the MIC in assay [1] was under 0.02 µM; in assay [3] it was under 0.02 µM; in assay [4] (setting [5]), 0.039 µM (≈ 0.0331 µg/mL). For the same molecule, the “Minimal Inhibitory Concentrations S. aureus USA 300 ΔClpP” value in assay [2] was over 20 µM.

`C[C@@H]1C[C@H]2C(=O)O[C@@H](C)[C@H](NC(=O)[C@H](Cc3cc(F)cc(F)c3)NC(=O)Nc3ccc4c(c3)CCN4C)C(=O)N3C[C@H](O)C[C@H]3C(=O)N3CCOC[C@H]3C(=O)N[C@@H](C)C(=O)N2C1` [Compound 315, (S)-3-(3,5-difluorophenyl)-N-((6aS,8R,12S,13S,15aS,17R,21S,23aS)-8-hydroxy-13,17,21-trimethyl-6,11,15,20,23-pentaoxooctadecahydro-6H,11H,15H-[1,4]oxazino[3,4-i]dipyrrolo[2,1-c:2′,1′-l][1]oxa[4,7,10,13]tetraazacyclohexadecin-12-yl)-2-(3-(1-methylindolin-5-yl)ureido)propanamide] ({NH(1-Me-indolin-5-yl)-CO}-[Phe(3,5-F2)][aThr][Hyp][Morpholine(3S-CO)]A[Pro(4R-Me)]; ester 2-C): the results for the MIC in assay [1], in assay [3] and in assay [4] (setting [6]) were 10 µM (≈ 8.67 µg/mL), 0.313 µM (≈ 0.271 µg/mL) and 0.625 µM (≈ 0.542 µg/mL), respectively. Further, the “Minimal Inhibitory Concentrations S. aureus USA 300 ΔClpP” value in assay [2] was over 20 µM.

Take `C[C@@H]1C[C@H]2C(=O)O[C@@H](C)[C@H](NC(=O)[C@H](Cc3cc(F)cc(F)c3)NC(=O)Nc3ccc(Cl)cc3F)C(=O)N3C[C@H](O)C[C@H]3C(=O)N3CCOC[C@H]3C(=O)N[C@@H](C)C(=O)N2C1` [Compound 316, (S)-2-(3-(4-chloro-2-fluorophenyl)ureido)-3-(3,5-difluorophenyl)-N-((6aS,8R,12S,13S,15aS,17R,21S,23aS)-8-hydroxy-13,17,21-trimethyl-6,11,15,20,23-pentaoxooctadecahydro-6H,11H,15H-[1,4]oxazino[3,4-i]dipyrrolo[2,1-c:2′,1′-l][1]oxa[4,7,10,13]tetraazacyclo-hexadecin-12-yl)propanamide] ({NH(4-Cl-2-F-phenyl)-CO}-[Phe(3,5-F2)][aThr][Hyp][Morpholine(3S-CO)]A[Pro(4R-Me)]; ester 2-C): the MIC in assay [1] was 0.156 µM (≈ 0.135 µg/mL); in assay [3], under 0.02 µM; in assay [4] (setting [5]), 0.078 µM (≈ 0.0674 µg/mL). Also, the “Minimal Inhibitory Concentrations S. aureus USA 300 ΔClpP” value in assay [2] was over 20 µM.

On to `C[C@@H]1C[C@H]2C(=O)OC[C@H](NC(=O)[C@H](Cc3cc(F)cc(F)c3)NC(=O)Nc3ccc(Cl)cc3F)C(=O)N3CCC[C@H]3C(=O)N3CCN(C)C[C@H]3C(=O)N[C@@H](C)C(=O)N2C1` [Compound 330, (S)-2-(3-(4-chloro-2-fluorophenyl)ureido)-3-(3,5-difluorophenyl)-N-((6aS,12S,15aS,17R,21S,23aS)-2,17,21-trimethyl-6,11,15,20,23-pentaoxooctadecahydro-2H,6H,11H,15H-pyrazino[2,1-i]dipyrrolo[2,1-c:2′,1′-l][1]oxa[4,7,10,13]tetraazacyclohexadecin-12-yl)propanamide] ({NH(4-Cl-2-F-phenyl)-CO}-[Phe(3,5-F2)]SP[Piperazine(2S-CO,4-Me)]A[Pro(4R-Me)]; ester 2-C), for which the MIC in assay [1] is 0.156 µM (≈ 0.132 µg/mL); in assay [3], 0.039 µM (≈ 0.033 µg/mL); in assay [4] (setting [5]), under 0.02 µM. Besides, in assay [2], the “Minimal Inhibitory Concentrations S. aureus USA 300 ΔClpP” value is over 20 µM.
